Data on 11 molecules can be found in patent US20060252707A1, “Pharmaceutical composition for the treatment and/or the prevention of atherosclerosis from infectious origin” (UNIVERSITE DE LIEGE, priority 2003, published 2006).

Entries after “also recorded” stand apart in the source; their conditions may differ. Some results are limits rather than exact numbers.

One data set relates to superoxide anion. The data set can be described thus: EPR spin-trapping of superoxide anion produced by Chlamydia-conditioned, PMA stimulated THP-1 cells. It is filed as cell-based, human. The settings on record: 10 μM DPI; FIG. 5 lines I-5 and II-4; PMA 5×10^−7 M. From the text:
Monocytes are conditioned by Chlamydia. The formation of this species was monitored by electron paramagnetic resonance, using spin-trapping agents.

In data set [1] the test system is THP-1 cells conditioned with Chlamydia pneumoniae. In words: Oxidant activity (ethylene production from KMB, gas liquid chromatography) of THP-1 cells conditioned with Chlamydia pneumoniae, then stimulated by PMA. It is filed as cell-based, human. The settings on record: for Ethylene: % of THP-1 + Chlamydia. Here is the method: This model has been described in details in Mouithys Mickalad et al. (Biochem Biophys Res Comm 2001, 287: 781-788). Treatment of the Cells with Chlamydia pneumoniae:
The monocytes (in multiwell plates, 2×10^6 cells/well) are conditioned by a pre-incubation of 19 hours with elementary bodies of Chlamydia pneumoniae (at a dose equivalent to a mean endotoxin concentration of 3.3 pg). The elementary bodies are obtained by Chlamydia culture in MacCoy cells (American Type Culture Collection, Rockville, USA).
After incubation with C. pneumoniae, the cells are washed and detached from the wells; they are put in sterile vials and an oxidable substrate, α-keto-methyl butyric acid (KMB) at 10^−3 M, is added. The vial is sealed and the following reagents are added by needle puncture. through the septum: 200 U horseradish peroxidase (HRP) and 10^−7 M phorbol myristate acetate (PMA).
PMA is a monocyte activator, enhancing the superoxide anion production by these cells. Superoxide anion dismutates into hydrogen peroxide (H2O2), which is used by HRP to form more oxidant species, able to oxidize KMB, releasing ethylene. After 3 hours of incubation at 37° C, ethylene, which has accumulated in the gaseous phase of the sealed vial is measured by gas liquid chromatography, on a Porapak T column (TM) equipped with flame ionisation detector. These assays can be made with the prior addition of a reagent able to inhibit or to stimulate the monocytes, the reagent being added, either at pre-incubation (at the same time as the Chlamydia EB), or at the moment of PMA activation.

The test system of data set [2] is nuclear transcription factor kappaB (NF-κB). The data set can be described thus: Activation of NF-κB (binding to DNA) by electrophoretic mobility shift assay in THP-1 cells pre-incubated with Chlamydia. The format is cell-based, human. The settings on record: THP-1 + Chlamydia, % of THP-1 without preincubation with C pneumoniae (FIG. 7). Here is the method:
FIG. 7 represents the effects of pre-incubation with Chlamydia on the activity of the nuclear transcription factor kappaB (NF-kB) (column 2). NF-kB is expressed in % of column 1 (THP-1 cells without preincubation with C pneumoniae)
The activation of NF-κB was measured by the technique of <<electrophoretic mobility shift assay>> (EMSA) (Schoonbroodt et al., 2000, J Immunol. 164: 4292-4300; Nys et al., 2003, Nitric Oxide 9: 33-43) (FIG. 7). The activation of NF-κB is expressed in % of control cells (cells which have not been pre-incubated with Chlamydia) (column 1). The incubation of monocytes with C. pneumoniae activates the NF-κB binding to DNA (FIG. 7, column 2).
Background: Mobility shift assays separate free from complexed probe on a gel.

For data set [3] the following is noted: Dunnick et al.; cited from earlier work.
Another data set deals with THP-1 cell line. The data set can be described thus: Model of foam cell formation from THP-1 monocytes (Chlamydia pneumoniae, then LDL or liposomes, Oil Red O). Particulars: 10^−5 M; LDL. It is filed as cell-based, human. Here is the method:
A model of foam cell formation from monocytes (THP-1 cell line) was developed. The cells are incubated for 19 hours with Chlamydia pneumoniae. This incubation is followed by the addition of human LDL or liposomes, and another incubation period of 48 hours. At the end of this second period of incubation, the cells are fixed and stained with oil Red O (Sigma, Belgium) (Smirnova et al., 2004, Am J Physiol Heart Circ Physiol. March 11 (Epub ahead of print) to highlight the foam cells. When drugs are used in this model, they are added at the same time as the LDL or liposomes. LDL are prepared from human blood drawn on EDTA. They are isolated by sequential flotation centrifugation with increased concentrations of KBr. After their isolation, LDL are dialysed, sterilised by filtration and their purity is confirmed by electrophoresis. Liposomes are lipid vesicles prepared by extrusion with cholesterol esters and phospholipids, mimicking lipoproteins.

The next data set has as its system THP-1 cells. The data set can be described thus: Microscopy of monocyte transformation into macrophages under Chlamydia pneumoniae. It is filed as cell-based, human. As for the experimental part:
Incubation of THP-1 cells with C. pneumoniae induces the differentiation of monocytes (round floating cells, […] diameter; FIG. 1, 1) into macrophages, amiboid cells, which are larger than monocytes (30-50 μm diameter) and adhere to the support (FIGS. 1,2). Monocytes are stained with Giemsa and May-Grunwald stains (Merck, Germany) (Chemical methods of medical investigation, 1964, 10th edition by E. Merck AG. Darmstadt, Germany) and macrophages are observed by phase contrast microscopy.

[4] abbreviates: not pre-incubated, added directly before the stimulation by PMA.
Where [5] appears, read: drug added at cell conditioning with Chlamydia (pre-incubation 19 hours), then PMA 10^−7 M.

For `c1ccc([I+]c2ccccc2)cc1` [DPI, diphenyl iodonium], the “effect on EPR signal of superoxide anion” value in the data set with superoxide anion is “suppresses”. Also, the “effect on ethylene production” value in data set [1] (DPI 5 μM, FIG. 3 column 7, PMA 10^−7 M) was “inhibits almost totally”.

For the molecule `C[C@H]1C[C@@H]2[C@H]([C@@H](O)C[C@@]3(C)[C@H]2CC[C@]3(O)C(=O)CO)[C@@]2(C)C=CC(=O)C=C12` [MPL, methylprednisolone], the results for the “NF-κB relative value (%)” value in data set [2] (10^−5 M) and in data set [2] (10^−6 M) were 417% and 450%, respectively.

For the molecule `O=c1c(O)c(-c2ccc(O)c(O)c2)oc2cc(O)cc(O)c12` [Quercetin, quercetin], the “concentrations at which toxicity does not exist” value in data set [3] was ≤ 10^−4 M. The “effect on oxidant activity / oxidation rate” value in data set [1] (10^−4 M, pre-incubated with Chlamydia) was “active; also recorded: inhibitor”. Also, the Ethylene is listed as 2.0% in data set [1] (FIG. 12, 10^−4 M incubated together with Chlamydia); 3.7% in data set [1] (FIG. 12, 10^−4 M not incubated (added just before PMA)); 100.0% in data set [1] (FIG. 12, 10^−5 M incubated together with Chlamydia); 1.2% in data set [1] (FIG. 12, 10^−5 M not incubated (added just before PMA)); 131.0% in data set [1] (FIG. 12, 10^−6 M incubated together with Chlamydia); 6.6% in data set [1] (FIG. 12, 10^−6 M not incubated (added just before PMA)). In addition, the “effect on ethylene production” value in data set [1] (setting [4]) was “quite completely inhibit the ethylene production”.

With `Oc1ccc(/C=C/c2cc(O)cc(O)c2)cc1` [Resveratrol, trans-reveratrol], the “effect on transformation into foam cells” value with THP-1 cell line is listed as “completely inhibits”. The entries for the “inhibition of the monocyte transformation into macrophages” value with THP-1 cells (at 10^−4 M) and in the data set on THP-1 cells (at 10^−5 M) were “nearly complete” and “partial”, respectively. For the same molecule, the Ethylene was 18.3% in data set [1] (FIG. 19, drug alone 10^−4 M, pre-incubation with Chlamydia) and 35.8% in data set [1] (FIG. 19, drug alone 10^−5 M, pre-incubation with Chlamydia). For the same molecule, the “effect on oxidant activity / oxidation rate” value in data set [1] (setting [5]) is “reduces the oxidizing activity of THP-1 cells”. In addition, the “effect on ethylene production” value in data set [1] (setting [4]) is listed as “inhibiting capacity is still more marked”.

For `CC(=O)c1ccc2c(c1)N(CCCN(C)C)c1ccccc1S2` [acepromazine], the “effect on oxidant activity / oxidation rate” value in data set [1] (setting [5]) is listed as “little or no effect”.

As for `COc1cc(C(C)=O)ccc1O` [apocyanine, apocynine], in data set [1] (setting [5]), the “effect on oxidant activity / oxidation rate” value is “little or no effect”.

Take `CC/C(=C(/CC)c1ccc(O)cc1)c1ccc(O)cc1` [bertrol, trans-α-α-diethyl-p,p′-stilbenediol]: the Ethylene turned out to be 1.6% in data set [1] (FIG. 21, drug alone 10^−4 M, pre-incubation with Chlamydia) and 32.0% in data set [1] (FIG. 21, drug alone 10^−5 M, pre-incubation with Chlamydia).

With `C[C@]12CC[C@@H]3c4ccc(O)cc4CC[C@H]3[C@@H]1CC[C@@H]2O` [estradiol], the Ethylene in data set [1] (FIG. 10, 10^−4 M not pre-incubated (added just before PMA)) is on record as 2.6%; in data set [1] (FIG. 10, 10^−4 M pre-incubated with Chlamydia), 140.0%; in data set [1] (FIG. 10, 10^−5 M not pre-incubated (added just before PMA)), 2.9%; in data set [1] (FIG. 10, 10^−5 M pre-incubated with Chlamydia), 133.0%; in data set [1] (FIG. 10, 10^−6 M not pre-incubated (added just before PMA)), 7.8%; in data set [1] (FIG. 10, 10^−6 M pre-incubated with Chlamydia), 85.0%.

As to `Oc1cc(O)cc(C=Cc2ccc(O)c(O)c2)c1` [piceatanol, 3,4,3′,5′tetrahydrostilbene], the Ethylene in data set [1] (FIG. 20, drug alone 10^−4 M, pre-incubation with Chlamydia) is 0.4%; in data set [1] (FIG. 20, drug alone 10^−5 M, pre-incubation with Chlamydia), 57.0%.

As to `Oc1ccc(/C=C/c2ccccc2)cc1` [trans-4-stilbene, trans-4-hydrostilbene], the Ethylene in data set [1] (FIG. 22, drug alone 10^−4 M, pre-incubation with Chlamydia) is on record as 1.8%; in data set [1] (FIG. 22, drug alone 10^−5 M, pre-incubation with Chlamydia), 14.0%.

As for tocopherol, the Ethylene in data set [1] (FIG. 11 column 4, 10^−4 M pre-incubated) amounted to 147.0%; in data set [1] (FIG. 11 column 5, 10^−6 M pre-incubated (so in the source)) it was 133.0%; in data set [1] (FIG. 11 column 6, 10^−6 M pre-incubated), 87.0%; in data set [1] (FIG. 11 column 7, 10^−4 M not pre-incubated (added just before PMA)), 2.4%; in data set [1] (FIG. 11 column 8, 10^−5 M not pre-incubated (added just before PMA)), 2.5%; in data set [1] (FIG. 11 column 9, 10^−6 M not pre-incubated (added just before PMA)) it was 77.0%. Besides, the “effect on oxidant activity / oxidation rate” value in data set [1] (setting [5]) is given as “favouring the oxidation rate”; in data set [1] (drug added at cell conditioning with Chlamydia (pre-incubation 19 hours), then PMA 10^−7 M, listed as vitamin E (tocopherol)) it was “little or no effect”. In addition, the “effect on ethylene production” value in data set [1] (setting [4]) was “quite completely inhibit the ethylene production”.
